Experiments:
[1] = system: brown planthoppers; experiment: Insecticidal test on brown planthoppers; type: in vivo, Nilaparvata lugens; details: active ingredient 500 ppm, germinating rice immersed, 4th-instar larvae, 25° C., 6 days
Method: Wettable powders were prepared in accordance with Formulation Example 2 and diluted with water to an active ingredient concentration of 500 ppm. Germinating rice was immersed in the resulting solutions and put in a plastic cup with a capacity of 60 ml. Ten 4th-instar larvae of brown planthoppers were released to the cup, and the cup was covered and placed in a thermostatic chamber at 25° C. for 6 days, and the survivors were counted for calculation of the insecticidal degree by using Equation 1. The test was carried out by one series system.

[2] = system: southern root-knot nematodes; experiment: Nemastatic test on southern root-knot nematodes; type: in vivo, Meloidogyne sp.; details: diluted solution 20 ppm mixed 1:1 with suspension of second stage larvae, 25° C., 5 days
Method: Compounds of the present invention (5 parts) and Tween 20 (tradename for polyoxyethylene sorbitan monolaurate) (1 part) as a spreader were dissolved n N,N-dimethylformamide (94 parts) to prepare 5% emulsifiable concentrates of the compounds of the present invention. Distilled water was added to the emulsifiable concentrates to prepare diluted solutions having a concentration of the compounds of the present invention of 20 ppm. 0.5 ml of the diluted solutions and 0.5 ml of water suspensions containing 100 second stage larvae of southern root-knot nematodes were mixed, and the mixture were placed in a thermostatic chamber at 25° C. for 5 days, and the survivors were counted for calculation of the nemastatic degree by using Equation 3. The test was carried out by two series system.

Compound | Insecticidal degree (%) [1] | Nemastatic degree (%) [2]
Cc1cc(F)c(-n2nc(C(F)(F)F)nc2NC(=O)N(C)C)cc1SCC(F)(F)F [Compound 83] | 10% | –
Cc1cc(F)c(-n2nc(SCC(F)(F)F)nc2N)cc1SCC(F)(F)F [Compound 130] | – | 100%
C#CCNc1nc(SC(F)(F)C(F)(F)F)nn1-c1cc(SCC(F)(F)F)c(C)cc1F [Compound 193] | 100% | 100%
CNc1nc(SC(F)(F)C(F)(F)F)nn1-c1cc(SCC(F)(F)F)c(C)cc1F [Compound 101] | 100% | 98%
CSc1nc(N)n(-c2cc(SCC(F)(F)F)c(C)cc2F)n1 [Compound 15] | – | 100%
CNc1nc(C(F)(F)F)nn1-c1cc(SCC(F)(F)F)c(C)cc1C [Compound 146] | – | 98%
Nc1nc(C(F)(F)F)nn1-c1ccc(Cl)c(SCC(F)(F)F)c1 [Compound 126] | – | 94%
Cc1cc(F)c(-n2nc(C(F)(F)F)nc2NCC#N)cc1SCC(F)(F)F [Compound 164] | 100% | 100%
Cc1cc(F)c(-n2nc(SCC#N)nc2N)cc1[S+]([O-])CC(F)(F)F (centres unmarked) [Compound 141] | 100% | 97%
CCc1nc(N)n(-c2cc(SCC(F)(F)F)c(C)cc2F)n1 [Compound 49] | 100% | –
Cc1cc(F)c(-n2nc(C(C)C)nc2N)cc1SCC(F)(F)F [Compound 110] | – | 97%
Cc1cc(F)c(-n2nc(C(F)(F)F)nc2C(N)=O)cc1[S+]([O-])CC(F)(F)F (racemic) [Compound 208] | – | 100%
CCSc1nc(N)n(-c2cc(SCC(F)(F)F)c(C)cc2F)n1 [Compound 21] | – | 100%
Cc1cc(F)c(-n2nc(C(F)(F)F)nc2C#N)cc1SCC(F)(F)F [Compound 209] | – | 100%
Cc1cc(F)c(-n2nc(S(C)(=O)=O)nc2N)cc1[S+]([O-])CC(F)(F)F (centres unmarked) [Compound 20] | 100% | 92%
CCc1nc(N)n(-c2cc(SCC(F)(F)F)c(C)cc2F)n1 [Compound 116] | – | 97%
Cc1nc(N)n(-c2cc(SCC(F)(F)F)c(C)cc2F)n1 [Compound 105] | 90% | –
Cc1cc(F)c(-n2nc(C(F)(F)F)nc2C(N)=O)cc1SCC(F)(F)F [Compound 207] | – | 100%
Cc1cc(F)c(-n2nc(SC(F)F)nc2N)cc1SCC(F)(F)F [Compound 27] | 100% | 100%
COC(=O)c1nc(C(F)(F)F)nn1-c1cc(SCC(F)(F)F)c(C)cc1F [Compound 203] | – | 92%
CC(=O)Nc1nc(C(C)(C)C)nn1-c1cc(SCC(F)(F)F)c(C)cc1F [Compound 112] | 90% | –
Cc1cc(F)c(-n2nc(C(F)(F)F)nc2NC(=O)C(F)F)cc1[S+]([O-])CC(F)(F)F (racemic) [Compound 200] | 100% | –
Cc1cc(F)c(-n2nc(C(C)(C)C#N)nc2N)cc1SCC(F)(F)F [Compound 103] | – | 94%
CC(=O)N(C)c1nc(SCC(F)(F)F)nn1-c1cc(SCC(F)(F)F)c(C)cc1F [Compound 158] | 90% | –
Cc1cc(F)c(-n2nc(C(F)(F)F)nc2N(C)N)cc1SCC(F)(F)F [Compound 170] | 100% | 100%
C#CCNc1nc(C(F)(F)F)nn1-c1cc(SCC(F)(F)F)c(C)cc1F [Compound 65] | 100% | 100%

Compound | Insecticidal degree (%) [1] | Nemastatic degree (%) [2]
C#CCNc1nc(SCC(F)(F)F)nn1-c1cc(SCC(F)(F)F)c(C)cc1F [Compound 184] | 100% | –
Cc1cc(F)c(-n2nc(C(F)(F)F)nc2N)cc1SCC1CC1 [Compound 3] | – | 100%
Cc1cc(F)c(-n2nc(SCC#N)nc2N)cc1SCC(F)(F)F [Compound 140] | – | 99%
COC(=O)Nc1nc(C(F)(F)F)nn1-c1cc(SCC(F)(F)F)c(C)cc1F [Compound 79] | 100% | 94%
C#CC[S+]([O-])c1nc(N)n(-c2cc(SCC(F)(F)F)c(C)cc2F)n1 (centres unmarked) [Compound 150] | 100% | –
CCC[S+]([O-])c1nc(N)n(-c2cc([S+]([O-])CC(F)(F)F)c(C)cc2F)n1 (centres unmarked) [Compound 137] | 100% | –
Cc1cc(F)c(-n2nc(SC(F)(F)F)nc2N)cc1SCC(F)(F)F [Compound 31] | 100% | 100%
CNc1nc(C(F)(F)F)nn1-c1cc(SCC(F)(F)F)c(C)cc1F [Compound 39] | 100% | 100%
CC[S+]([O-])c1nc(N)n(-c2cc([S+]([O-])CC(F)(F)F)c(C)cc2F)n1 (centres unmarked) [Compound 24] | 90% | –
Cc1cc(F)c(-n2nc(C(C(F)(F)F)C(F)(F)F)nc2N)cc1SCC(F)(F)F [Compound 182] | – | 91%
CC[S+]([O-])c1nc(N)n(-c2cc(SCC(F)(F)F)c(C)cc2F)n1 (centres unmarked) [Compound 23] | 90% | 100%
Cc1cc(F)c(-n2nc(C(F)(F)C(F)(F)C(F)(F)F)nc2N)cc1SCC(F)(F)F [Compound 174] | 90% | 100%
CNc1nc(SCC(F)(F)F)nn1-c1cc(SCC(F)(F)F)c(C)cc1F [Compound 160] | 100% | 100%
C#CCSc1nc(N)n(-c2cc(SCC(F)(F)F)c(C)cc2F)n1 [Compound 148] | 100% | 99%
CCC(=O)Nc1nc(C(F)(F)F)nn1-c1cc(SCC(F)(F)F)c(C)cc1F [Compound 186] | 100% | –
CCNc1nc(C(F)(F)F)nn1-c1cc(SCC(F)(F)F)c(C)cc1F [Compound 59] | 100% | 100%
CNc1nc(C(F)(F)F)nn1-c1cc(SCC(F)(F)F)c(C)cc1Cl [Compound 97] | – | 97%
Cc1cc(F)c(-n2nc(C(F)(F)F)nc2NC(=O)NC(C)C)cc1SCC(F)(F)F [Compound 201] | 100% | –
Cc1cc(F)c(-n2nc(SC(F)(F)C(F)(F)F)nc2N)cc1SCC(F)(F)F [Compound 176] | 90% | 97%
Cc1cc(F)c(-n2nc(C(F)(F)F)nc2NCC#N)cc1[S+]([O-])CC(F)(F)F (centres unmarked) [Compound 165] | 100% | –
CCN(CC)c1nc(C(F)(F)F)nn1-c1cc(SCC(F)(F)F)c(C)cc1F [Compound 128] | 100% | –
CCS(=O)(=O)c1nc(N)n(-c2cc([S+]([O-])CC(F)(F)F)c(C)cc2F)n1 (centres unmarked) [Compound 26] | 90% | –
Cc1cc(F)c(-n2nc(C(F)(F)C(F)(F)C(F)(F)F)nc2N)cc1[S+]([O-])CC(F)(F)F (racemic) [Compound 175] | – | 97%
Cc1cc(F)c(-n2nc(C(F)(F)F)nc2NN)cc1[S+]([O-])CC(F)(F)F (centres unmarked) [Compound 163] | 100% | –
Cc1cc(F)c(-n2nc(C(F)(F)F)nc2NC(=O)CCl)cc1SCC(F)(F)F [Compound 189] | 100% | –

From patent US7872036B2, “3-triazolylphenyl sulfide derivative and insecticide, miticide and nematicide containing it as an active ingredient” (Kumiai Chemical Industry Co., Ltd., priority 2004, dated 2011)
